Values of other authors in patent US20070036859A1, “Sustained release antihistamine and decongestant composition” (priority 2005, published 2007).

Conditions: conventional tablets, oral

Question: Which “duration of antihistaminic effect” value does the source give for `CCOC(=O)N1CCC(=C2c3ccc(Cl)cc3CCc3cccnc32)CC1` [loratadine] here?
Answer: > 24 h

Question: And the “time to begin of antihistaminic effect after ingestion” value?
Answer: one to three
